Experimental data published in patent US20210230131A1, “POLYAMINO BIARYL COMPOUNDS AND THEIR USE” (INSERM (INSTITUT NATIONAL DE LA SANTÉ ET DE LA RECHERCHE …, priority 2018, published 2021).

Legend:
CTFα = test: APP carboxy-terminal fragment αCTF by Western blot in SY5Y-APP695WT cells; assay type: cell-based, human; settings: CTFα increase compared to chloroquine ([CTF]compound/[CTF]CQ) at 3 μM; mean of at least three experiments
Excerpt: Antibodies. Primary antibodies used in this study for western-blot analysis included a homemade rabbit antiserum against the last 17 amino acids of human APP protein sequence, named APP-Cter-C17 (1/5000 in TBS-M). Anti-β-actin (1/10 000 in TBS-M) was obtained from Sigma. Anti-LC3B (1/2000 in TBS-BSA) and anti-p62/SQSTM1 (1/2000 in TBS-M) antibodies were purchased from Cell Signaling Technology. Secondary antibodies (peroxidase-labeled goat anti-rabbit IgG, 1/5000 or peroxidase-labeled horse anti-mouse IgG, 1/50000 in TBS-T) were obtained from Vector Laboratories.
Cell culture and treatment. The human neuroblastoma cell line SY5Y-APP^695WT was maintained in Dulbecco's modified Eagle medium (DMEM, high glucose, pyruvate—GIBCO by Life Technologies) supplemented with 10% foetal bovine serum, 2 mM L-glutamine, 1 mM non-essential amino acids and penicillin/streptomycin (GIBCO by Life Technologies) at 37° C. in a 5% CO2 humidified incubator. SY5Y-APP^695WT cells were maintained in 75 cm^2 culture flasks (Falcon) with supplemented DMEM medium until they reached 80% of confluence 24 h before treatment.
For drug treatment, cells were plated at a rate of 5·10^5 cells per well into 12-well plates (Falcon) and cultured with 1 mL supplemented DMEM cell medium for 24 h before drug exposure. The following day, cell medium was replaced with fresh medium containing drugs diluted at the indicated concentrations. Cells were treated for 24 h. At the end of treatments, the cell medium was collected and kept at −80° C. until use for dosage. Then, cells were rinsed once with PBS and extracted in 100 μL of Laemmli buffer (10 mM Tris, 20% glycerol and 2% Sodium dodecyl sulfate) using a cell-scraper. The cell lysate was further sonicated (30 pulses of 0.5 s, 60 Hz) for 5 min. Total protein concentration was determined using the Pierce BCA Protein Assay Kit (Thermo scientific) according to the manufacturer's instructions. Samples were stored at −80° C. until analysis.
Western Blot Analysis. Cell protein lysates were prepared for western-blot analysis by diluting the sample with 1 volume of NuPAGE® lithium dodecyl sulfate (LDS) 2× sample buffer supplemented with 20% NuPAGE® sample reducing agents (Invitrogen). Samples were heat 10 min at 100° C. 10 μg of total proteins per well were loaded onto a precast 4-12% Criterion XT Bis-Tris polyacrylamide gel (Bio-Rad) and electrophoresis was achieved after applying a tension of 150 V during 90 min using a Criterion electrophoresis Cell with the NuPAGE® MOPS SDS running buffer (1×). Proteins were transferred to a nitrocellulose membrane of […] pore size (G&E Healthcare) using the Criterion blotting system and applying a tension of 100 V for 45 min. To resolve proteins of low molecular weights such as carboxy-terminal fragments of APP, 12% Criterion XT Bis-Tris polyacrylamide gels (Bio-Rad) were used and electrophoresis was performed during 70 min at 150 V in a NuPAGE® MES SDS running buffer (1×). Proteins were transferred to a nitrocellulose membrane of 0.2 μm pore size (G&E Healthcare) at 100 V for 40 min. Molecular weights calibration was achieved using molecular weight markers (Novex and Magic Marks, Life Technologies). Protein transfer and quality were determined by a reversible Ponceau Red coloration (0.2% Xylidine Ponceau Red and 3% Trichloroacetic acid). Membranes were then blocked in 25 mM Tris-HCl pH 8.0, 150 mM NaCl, 0.1% Tween-20 (v/v) (TBS-T) and 5% (w/v) of skimmed milk (TBS-M) or 5% (w/v) of bovine serum albumin (TBS-BSA) depending on the antibody during 1 h. Membrane was rinsed three-times 10 min in TBS-T before incubation with the primary antibody overnight at 4° C. Membrane was rinsed 3 times 10 min with TBS-T and then incubated with the secondary antibody for 45 min at room temperature (RT). […] Quantifications of protein expression levels were performed with ImageJ Software (NIH). […]

wild-type mice = test: Y-Maze short-term memory test in wild-type mice; assay type: in vivo; settings: treated wild-type mice, 1 mg/kg in drinking water
Protocol: (§1) Thy-Tau22 transgenic colonies (C57Bl/6J genetic background) were obtained by crossing heterozygous males C57Bl/6J with WT females. All animals were housed in a pathogen-free facility at 5 to 6 animals per cage (Techniplast Cages 1284L), with ad libitum access to food and water in a 12/12-hour light-dark cycle and maintained under a constant temperature of 22° C. For treatment, animals were randomly distributed and compound 30 or 31 was provided in the drinking water at a final concentration of 1 mg/kg, ie […] for drinking solutions taking into account an average weight of 25 g/mouse drinking 4 mL/day. […] Food consumption and bodyweight were also assessed. In WT animals, a pilot study of drug treatment was performed for one month to establish the innocuousness of compound 30 and 31 treatments. Thy-Tau22 females were treated for 1 months, starting at 6 months of age.
Y-Maze: Short-term memory was tested on a Y-maze. The Y-maze consists of three enclosed arms surrounded by spatial clues. One arm was closed off during the learning phase. Each mouse was positioned in the Starting arm. Mice were allowed to explore the maze for 5 min. During 2 min of retention time, the closed arm was opened and the mouse was re-placed in the starting arm. […] Parameters—total distance travelled, velocity, alternation between the arms, entries into the new, starting or other arm—were measured over 5 minutes. […]

ThyTau22 mice = test: Y-Maze short-term memory test in Thy-Tau22 mice; assay type: in vivo; settings: ThyTau22 mice treated one month, 1 mg/kg in drinking water; compared with compound 30
Protocol: as §1, with “In WT animals, a pilot study of drug treatment was performed for one month to establish the innocuousness of compound 30 and 31 treatments. Thy-Tau22 females were treated for 1 months, starting at 6 months of age.” left out
Before any behavioral test, exploratory behavior and locomotion were evaluated in treated and untreated animals in an Openfield (OF) 25 cm×25 cm arena. […] Anxiety, which could interfere with the memory test, was evaluated using the elevated plus maze (EPM). […] Locomotion, distance, speed and velocity were measured, as well as the number of entries into each arm, time spent in open versus closed arms, percentage of open arm entries and time spent in the open arms during a 5 minutes test.
Y-Maze: Short-term memory was tested on a Y-maze. […] Parameters—total distance travelled, velocity, alternation between the arms, entries into the new, starting or other arm—were measured over 5 minutes. […]

SMILES	CTFα vs CQ (3 μM) (CTFα)	Y-Maze behavioral task (wild-type mice)	short memory preservation at the Y-Maze task (ThyTau22 mice)
CN(C)Cc1ccccc1-c1ccc(NCCCN2CCCCC2)c(OCCN2CCCCC2)c1 [Compound 30, 4-(2-[(Dimethylamino)methyl]phenyl)-2-[2-(piperidin-1-yl)ethoxy]-N-[3-(piperidin-1-yl)propyl]aniline]	6.4	–	–
CN(C)Cc1ccccc1-c1ccc(NCCCN2CCCCC2)c(OCCC2CCCCC2)c1 [Compound 31, 3-(2-cyclohexylethoxy)-2′-((dimethylamino)methyl)-N-(3-(piperidin-1-yl)propyl)-[1,1′-biphenyl]-4-amine]	0.1	succeed in the Y-Maze behavioral task	higher short memory preservation
